Measured values taken from patent publication US8785594B2, “Glycoproteins and glycosylated cells and a method for the preparation of the same” (Glycom A/S, priority 2007, dated 2014).
Marks after values point to notes of the source that are not given here.

Legend:
Format in all cases: cell-based
[1] = tested on: B16.BL6 melanoma cells; test: Scintillation, estimation of epitopes per cell (Example 14)
Experimental: Radioactive labelled and regular trisaccharide probe was dissolved in HBSS containing D-glucose (without Mg^2+ and Ca^2+) (Gibco Invitrogen, Taastrup, Denmark) and passed through sterile filters (0.2 μm Supor® Acrodisc® 13, Gelman Sciences, Ann Arbor, Mich.). Four different concentrations of each “Glycom conjugate” (25 mg, 5 mg, 1 mg and 0.1 mg) were made. Twelve flasks (150 cm^2) (TPP, Trasadingen Switzerland) were prepared each containing a total of 10×10^6 B16.BL6 cells. The trisaccharide probe was added and the total volume was adjusted to 20 mL with HBSS containing D-glucose (without Mg^2+ and Ca^2+). The cells were incubated with the “Glycom conjugate” for 1.5 hours at 37° C. After conjugation, the supernatant from each flask was transferred to separate 50 mL tubes (TPP, Trasadingen Switzerland). The cells were harvested with Cell Dissociation Solution C5914 (5 mL per flask) (Sigma-Aldrich, Saint Louis, Mo. and transferred to the 50 mL tubes containing the supernatant. The cells were centrifuged for 3 minutes at 300 G at 20° C. and resuspended in 5 mL of PBS (without Mg^2+ and Ca^2+). This was repeated 3 times before cell concentration and viability was determined by microscopical evaluation of trypan blue stained cell samples.
Cells conjugated with radioactive labelled trisaccharide probe were centrifuged for 5 minutes at 1000 G at 20° C. The supernatants were discharged and the remaining pellets were dried. Subsequently, the pellets were dissolved in 400 μl Mili-Q H2O and 1.5 mL of scintillation fluid was added. Standards for the scintillation were made by adding 500 pCi, 0.5 pCi and 0 pCi to the 3 samples of control cells. The samples were stored at room temperature for 3 days, before the cell suspensions were transferred to scintillation vials and counted.

[2] = tested on: B16.BL6 melanoma cells; test: Staining of cell smears with FITC-labelled GS1B4 (Example 11)
Experimental: Five hundred mg of alpha-Gal trisaccharide-carbamate (9) was dissolved in PBS (without Mg^2+ and Ca^2+) (Gibco Invitrogen, Taastrup, Denmark) and passed through a sterile filter (Sartorius Minisart®, 0.20 my) (Sartorius, Goettingen, Germany). Eight different concentrations of conjugate were prepared. Two mL of each conjugate dilution was added to a flask with 2 mL of PBS (without Mg^2+ and Ca^2+) and 600 μl of cell suspension containing 10^6 B16.BL6 cells. The final volume of the flasks was 4.6 mL. The flasks were numbered 1 to 10. Flasks 1 and 10 contained no conjugate and served as controls. The cells were incubated with the conjugate for 3 hours and 25 minutes at 37° C. and 5% CO2.
Smears of cells from conjugation reaction 1 (non-conjugated control cells), 2, 4, 6 and 8 were incubated for 1 hour at room temperature with FITC-labelled GS1B4 diluted 1:200 in TBS. After a rinse in TBS, one drop of Fluorescent Mounting Medium (DAKO) was placed on each of the cell specimens and glass coverslips were placed on top. Binding of FITC-labelled GS1B4 to Galα1,3Gal on conjugated cells was assessed by fluorescence microscopy.

[3] = tested on: B16.BL6 melanoma cells; test: Cell viability after 1 hour conjugation, trypan blue (Example 12); conditions: for Viability of cells harvested: 1 hour
Experimental: The alpha-Gal trisaccharide-carbamate probe (9) was dissolved in both PBS (without Mg^2+ and Ca^2+) (Gibco Invitrogen, Taastrup, Denmark) and HBSS (with D-glucose) (Gibco Invitrogen, Taastrup, Denmark) and passed through sterile filters (Sartorius Minisart®, 0.20 my) (Sartorius, Goettingen, Germany). Three different concentrations of the trisaccharide probe were prepared in both PBS and HBSS.
Eight small flasks (25 cm^2) (TPP, Trasadingen Switzerland) were prepared, each containing 10^6 B16.BL6 cells, and the trisaccharide probe was added. Total volume of the flasks was 4.6 mL. The cells were incubated with the conjugate for 1 hour at 37° C. and 5% CO2.
After conjugation, the supernatant from each flask was transferred to separate 10 mL tubes (TPP, Trasadingen Switzerland). The cells were harvested with Cell Dissociation Solution (2 mL per flask) (Sigma-aldrich, Saint Louis, Mo.) and transferred to the 10 mL tubes. Cells were centrifuged for 5 minutes at 300 G at 20° C. and resuspended in 0.5 mL of PBS or HBSS. Cell concentration and viability was determined by microscopic evaluation of trypan blue stained cell samples.

[4] = tested on: B16.BL6 melanoma cells; test: Flow cytometry with FITC-labelled GS1B4 (Example 13)
Experimental: The alpha-Gal trisaccharide probe (9) was dissolved in HBSS (Gibco Invitrogen, Taastrup, Denmark) and passed through a sterile filter (0.2 μm Supor® Acrodisc® 13, Gelman Sciences, Ann Arbor, Mich.). Three different concentrations of the alpha-Gal trisaccharide-carbamate (9) were made. Five small flasks were prepared with 606 μL of cell suspension containing a total of 10^6 B16.BL6 cells in addition to 4 mL of one of the conjugate solutions. Each flask contained a total volume of 4.6 mL. The cells were incubated with the “Glycom conjugate” for either 3 or 1.5 hours at 37° C.
After conjugation, the supernatant from each flask was transferred to separate 10 mL tubes (TPP, Trasadingen Switzerland). Cells were washed twice by adding PBS to the flasks and immediately removing it again. The cells were harvested with Cell Dissociation Solution (2 mL per flask) (Sigma-aldrich, Saint Louis, Mo.). After 5 minutes, cells were transferred to the 10 mL test tubes. The cells were centrifuged for 5 minutes at 300 G at 20° C. and resuspended in 0.5 mL of PBS. Cell concentration and viability was determined by microscopic evaluation of trypan blue stained cell samples.
One hundred μL of cell suspension containing 1×10^5 cells were incubated for 15 minutes at 4° C. with 10 μg per mL (1:100 dilution) of FITC-labelled GS1B4 in PBS. Rabbit red blood cells (A) were used for comparison,
As very few cells were available for flow cytometry analysis the exact cell concentration was not determined. Instead, the amount of cells used was estimated to 0.4×10^5. The cells were incubated for 15 minutes at 4° C. with 4 μg per mL of FITC-labelled GS1B4 in PBS. Rabbit red blood cells (B) were used for comparison.
Mean and median cell fluorescence intensity was determined by flow cytometry.

[5] = reaction 1, 19.2 mg, 3 hours, 10 μg per mL FITC-GS1B4
[6] = reaction 2, 19.2 mg, 1.5 hours, group of 35.3% of the cells
[7] = reaction 2, 19.2 mg, 1.5 hours, group of 62.7% of the cells
[8] = reaction 4, 58 mg, 1.5 hours, group of 15.65% of the cells
[9] = reaction 4, 58 mg, 1.5 hours, group of 84.26% of the cells

O=[13C]1N[C@@H]2O[C@H](CO)[C@@H](O[C@@H]3O[C@H](CO)[C@H](O)[C@H](O[C@H]4O[C@H](CO)[C@H](O)[C@H](O)[C@H]4O)[C@H]3O)[C@H](O)[C@H]2O1 [radioactive labelled conjugate]
Epitopes per cell ([1]; 0.1 mg conjugate added): 3.6 × 10^6 | Epitopes per cell ([1]; 1 mg conjugate added): 28.3 × 10^6 | Epitopes per cell ([1]; 5 mg conjugate added, cells from supernatant only): 152.4 × 10^6 | Epitopes per cell ([1]; 25 mg conjugate added, attached cells only): 364.2 × 10^6 | Relation of scintillation counts to dose of conjugate ([1]; 0.1-25 mg): positive correlation

O=C1N[C@@H]2O[C@H](CO)[C@@H](O[C@@H]3O[C@H](CO)[C@H](O)[C@H](O[C@H]4O[C@H](CO)[C@H](O)[C@H](O)[C@H]4O)[C@H]3O)[C@H](O)[C@H]2O1 [Compound 9, alpha-Gal trisaccharide-carbamate]
Staining of cell membranes with FITC-labelled GS1B4 ([2]; conjugation reaction 2 (200 mg)): heavily stained | Galα1,3Gal epitopes detected by binding of FITC-labelled GS1B4 on cell smears ([2]; conjugation reactions 2, 4, 6 and 8 (200, 50, 10, 2 mg)): found on cells from all conjugation reactions tested | Viability of cells after incubation, before harvest ([3]; after the 1-hour incubation with the trisaccharide probe): most of the cells were viable | Viability of cells harvested ([3]; reaction HA, 16 mg, HBSS (with D-glucose)): 33.3% | Viability of cells harvested ([3]; reaction HB, 2 mg, HBSS (with D-glucose)): 41.7% | Viability of cells harvested ([3]; reaction HC, 1 mg, HBSS (with D-glucose)): 41.6% | Viability of cells harvested ([3]; reaction PA, 16 mg, PBS): 14.3% | Viability of cells harvested ([3]; reaction PB, 2 mg, PBS): 32.0% | Viability of cells harvested ([3]; reaction PC, 1 mg, PBS): 37.5% | Galα1,3Gal epitopes detected by binding of FITC-labelled GS1B4, flow cytometry ([4]; all conjugation reactions (1.9-58 mg, 1.5 or 3 hours)): found on B16.BL6 cells from all conjugation reactions | Mean fluorescence intensity [4, 5]: 197.8 | Median fluorescence intensity [4, 5]: 155.4 | Share of the cells in the group of higher fluorescence intensity ([4]; reaction 2, 19.2 mg, 1.5 hours): 2 (35.3% of the cells)** | Share of the cells in the group of lower fluorescence intensity ([4]; reaction 2, 19.2 mg, 1.5 hours): 2 (62.7% of the cells)** | Mean fluorescence intensity [4, 6]: 2940.2 | Median fluorescence intensity [4, 6]: 2196.8 | Mean fluorescence intensity [4, 7]: 161.63 | Median fluorescence intensity [4, 7]: 125.2 | Mean fluorescence intensity ([4]; reaction 3, 1.9 mg, 1.5 hours): 167.8 | Median fluorescence intensity ([4]; reaction 3, 1.9 mg, 1.5 hours): 66.4 | Share of the cells in the group of higher fluorescence intensity ([4]; reaction 4, 58 mg, 1.5 hours): 4 (15.65% of the cells) | Share of the cells in the group of lower fluorescence intensity ([4]; reaction 4, 58 mg, 1.5 hours): 4 (84.26% of the cells) | Mean fluorescence intensity [4, 8]: 770.0 | Median fluorescence intensity [4, 8]: 504.8 | Mean fluorescence intensity [4, 9]: 49.2 | Median fluorescence intensity [4, 9]: 44.1
